From patent publication US20250332173A1, “COMPOUNDS AND METHODS FOR MODULATING NUCLEIC ACID SPLICING” (REMIX THERAPEUTICS INC., priority 2021, published 2025) come the findings set out here.

What all share (assay type): cell-based, human
In one test the test system is Target C. Nature of the test: RT-qPCR splicing assay panel, Target C canonical junction (CJ) mRNA. As to conditions: Homo sapiens. The method in brief: (§1)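 A673 cells (DMEM/10% FBS) or K562 cells (IMDM/10% FBS) were treated 24 h at 37° C. with 11-point 3-fold dilutions (top 10 uM, ≤0.25% DMSO). Canonical-junction mRNA was quantified in lysates by RT-qPCR, normalized to GAPDH, GUSB or PPIA.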

The subject of a further test is SMN2 mRNA. Nature of the test: RT-qPCR splicing assay, SMN2 canonical junction (CJ) mRNA. To be noted: Homo sapiens. The method in brief: as §1
(Quantitative PCR measures a nucleic acid by following its amplification.)

Another test relates to HTT. Description: HiBiT protein abundance assay, HTT HiBiT K562 cell line. As to conditions: 24 hours, top dose 10 μM. The method in brief: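 Tagged-protein abundance measured by split-NanoBiT luminescence after lysis, following 24 h compound exposure (37° C; 10 μM top, 3-fold, 10 points; DMSO ≤0.25%) of HiBiT knock-in K562 cells. Percent response vs DMSO and unmodified-cell controls; 4-parameter logistic interpolation at 50% gave IC50.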

The mark [1] stands for this setting: Table 5 panel, canonical junction qPCR, compound concentration having 50% response in CJ decrease, read-out: Target C IC50 (decrease in CJ mRNA levels).
Where [2] appears, read: Table 5 panel, canonical junction qPCR, compound concentration having 50% response in CJ decrease, read-out: SMN2 IC50 (decrease in CJ mRNA levels).
[3] abbreviates: HiBiT K562 cell line, read-out: Effect on protein abundance, HTT (IC50 category).
The mark [4] stands for this setting: canonical junction qPCR panel, Table 5, read-out: Target C (decrease in CJ mRNA levels, IC50).
[5] abbreviates: canonical junction qPCR panel, Table 5, read-out: SMN2 (decrease in CJ mRNA levels, IC50).
Where [6] appears, read: HiBiT lytic detection, modified K562 cells, read-out: Effect on protein abundance, HTT (IC50).

By IC50 is commonly meant the concentration needed to halve the response being measured.

Read-outs that look alike come from different tables or passages of the source.

As for `Cc1cn2cc(-c3ccc4c(=O)n(C5CCNC(C)(C)C5)cnc4c3)cc(F)c2n1` (stereo not drawn) [Compound 237], the IC50 with Target C (setting [1]) is 1000 to 10000 nM; with SMN2 mRNA (setting [2]) it was below 100 nM; in the test on HTT (setting [3]), 100 to 1000 nM.
As for `Cc1cn2nc(-n3cnc4cc(N5CCNCC5)ccc4c3=O)cc(C)c2n1` [Compound 241], the IC50 in the test on Target C (setting [1]), with SMN2 mRNA (setting [2]) and in the test on HTT (setting [3]) was 1000 to 10000 nM in each case.
As for `Cc1cn2nc(-c3cc(F)c4c(=O)n(C5CCN(C)CC5)cnc4c3)cc(C)c2n1` [Compound 242], the IC50 in the test on Target C (setting [1]) is 100 to 1000 nM; with SMN2 mRNA (setting [2]) it was below 100 nM; with HTT (setting [3]), below 100 nM.
On to `Cc1cn2cc(-c3ncc4c(=O)n([C@H]5CCNC6(CC6)C5)ccc4n3)cc(F)c2n1` [Compound 1458, 6-[(7S)-4-azaspiro[2.5]octan-7-yl]-2-(8-fluoro-2-methyl-imidazo[1,2-a]pyridin-6-yl)pyrido[4,3-d]pyrimidin-5-one], for which the IC50 in the test with Target C (setting [4]) is 100 to 1000 nM; in the test on SMN2 mRNA (setting [5]) it was below 100 nM; in the test on HTT (setting [3]), 100 to 1000 nM.
Regarding `Cc1c(O)c(-c2ncc3c(=O)n([C@H]4CC[C@H](N(C)C)CC4)ccc3n2)cc2cn(C)nc12` [Compound 1459, 6-((1r,4r)-4-(dimethylamino)cyclohexyl)-2-(6-hydroxy-2,7-dimethyl-2H-indazol-5-yl)pyrido[4,3-d]pyrimidin-5(6H)-one], the IC50 in the test with Target C (setting [4]) is 100 to 1000 nM; with SMN2 mRNA (setting [5]), below 100 nM; in the test with HTT (setting [3]) it was 100 to 1000 nM.
`Cc1c(O)c(-c2ncc3c(=O)n([C@H]4CC[C@@H](N(C)C)CC4)ccc3n2)cc2cn(C)nc12` [Compound 1460, 6-((1s,4s)-4-(dimethylamino)cyclohexyl)-2-(6-hydroxy-2,7-dimethyl-2H-indazol-5-yl)pyrido[4,3-d]pyrimidin-5(6H)-one]: the IC50 in the test with Target C (setting [4]) was 1000 to 10000 nM; in the test on SMN2 mRNA (setting [5]) it was below 100 nM; with HTT (setting [3]) it was 100 to 1000 nM.
`Cc1c(O)c(-c2ncc3c(=O)n([C@H]4CCN[C@H](C)C4)ccc3n2)cc2cn(C)nc12` [Compound 1461, 2-(6-hydroxy-2,7-dimethyl-indazol-5-yl)-6-[(2R,4S)-2-methyl-4-piperidyl]pyrido[4,3-d]pyrimidin-5-one]: the half-maximal inhibitory concentration (IC50) in the test on Target C (setting [4]) is 100 to 1000 nM; with SMN2 mRNA (setting [5]) it was below 100 nM; in the test with HTT (setting [3]), 100 to 1000 nM.
Turning to `Cc1c(O)c(-c2ncc3c(=O)n([C@@H]4CCN[C@@H](C)C4)ccc3n2)cc2cn(C)nc12` [Compound 1462, 2-(6-hydroxy-2,7-dimethyl-indazol-5-yl)-6-[(2S,4R)-2-methyl-4-piperidyl]pyrido[4,3-d]pyrimidin-5-one], the results for the IC50 in the test on Target C (setting [4]), in the test on SMN2 mRNA (setting [5]) and in the test with HTT (setting [3]) were 100 to 1000 nM, below 100 nM and below 100 nM, respectively.
Turning to `Cc1c(O)c(-c2ccc3c(=O)n([C@@H]4C[C@@H](C)N[C@@H](C)C4)ccc3n2)cc2cn(C)nc12` [Compound 1463, 6-[(2S,6R)-2,6-dimethyl-4-piperidyl]-2-(6-hydroxy-2,7-dimethyl-indazol-5-yl)-1,6-naphthyridin-5-one], the IC50 in the test on Target C (setting [4]) is 1000 to 10000 nM; with SMN2 mRNA (setting [5]), below 100 nM; in the test with HTT (setting [3]) it was 100 to 1000 nM.
On to `Cc1c(O)c(-c2ccc3c(=O)n([C@H]4C[C@@H](C)N[C@@H](C)C4)ccc3n2)cc2cn(C)nc12` [Compound 1464, 6-[(2S,6R)-2,6-dimethyl-4-piperidyl]-2-(6-hydroxy-2,7-dimethyl-indazol-5-yl)-1,6-naphthyridin-5-one], for which the IC50 in the test with Target C (setting [4]) was 1000 to 10000 nM; with SMN2 mRNA (setting [5]), below 100 nM; in the test on HTT (setting [3]), 100 to 1000 nM.
In the case of `Cn1cc2cc(-c3ncc4c(=O)n([C@H]5CCNC5)ccc4n3)c(O)c(F)c2n1` [Compound 1465], the figures for the IC50 in the test on Target C (setting [4]), with SMN2 mRNA (setting [5]) and in the test with HTT (setting [3]) were 100 to 1000 nM, below 100 nM and 100 to 1000 nM, respectively.
As for `Cn1cc2cc(-c3ncc4c(=O)n([C@@H]5CCNC5)ccc4n3)c(O)c(F)c2n1` [Compound 1466], the 50% inhibitory concentration (IC50) is 100 to 1000 nM in the test with Target C (setting [4]), below 100 nM in the test on SMN2 mRNA (setting [5]) and 100 to 1000 nM in the test with HTT (setting [6]).
In the case of `Cc1c(O)c(-c2ccc3c(=O)n(C4CCNC4)cc(C)c3n2)cc2cn(C)nc12` (stereo not drawn) [Compound 1467], the IC50 in the test with Target C (setting [4]) was above 10000 nM; with SMN2 mRNA (setting [5]), below 100 nM; with HTT (setting [6]), 100 to 1000 nM.
For `Cn1cc2cc(-c3ncc4c(=O)n(C56CCC(N)(CC5)C6)ccc4n3)c(O)c(F)c2n1` [Compound 1468], the IC50 was 100 to 1000 nM in the test on Target C (setting [4]), below 100 nM with SMN2 mRNA (setting [5]) and 100 to 1000 nM in the test on HTT (setting [6]).
With `Cc1cn2cc(-c3ncc4c(=O)n(C56CCC(N)(CC5)C6)ccc4n3)cc(F)c2n1` [Compound 1469, 6-(4-aminonorbornane-1-yl)-2-(8-fluoro-2-methyl-imidazo[1,2-a]pyridin-6-yl)pyrido[4,3-d]pyrimidin-5-one], the IC50 with Target C (setting [4]) was 100 to 1000 nM; with SMN2 mRNA (setting [5]) it was below 100 nM; in the test with HTT (setting [6]) it was 1000 to 10000 nM.
With `Cn1cc2cc(-c3ncc4c(=O)n(C56CCC(N)(CC5)C6)ccc4n3)c(O)cc2n1` [Compound 1470], the half-inhibitory concentration (IC50) with Target C (setting [4]) is 1000 to 10000 nM; with SMN2 mRNA (setting [5]), below 100 nM; in the test on HTT (setting [6]), 1000 to 10000 nM.
`Cc1c(O)c(-c2ncc3c(=O)n([C@@H]4C[C@H]5COC[C@@H](C4)N5)ccc3n2)cc2cn(C)nc12` [Compound 1471]: the IC50 with Target C (setting [4]) is 100 to 1000 nM; in the test with SMN2 mRNA (setting [5]), below 100 nM; with HTT (setting [6]), 100 to 1000 nM.
Turning to `Cc1c(O)c(-c2ncc3c(=O)n([C@@H]4CC[C@@H](N)C4)ccc3n2)cc2cn(C)nc12` [Compound 1476, 6-[(1R,3R)-3-aminocyclopentyl]-2-(6-hydroxy-2,7-dimethyl-indazol-5-yl)pyrido[4,3-d]pyrimidin-5-one], the IC50 with Target C (setting [4]) was 1000 to 10000 nM; in the test on SMN2 mRNA (setting [5]) it was below 100 nM; with HTT (setting [6]), 100 to 1000 nM.
`Cc1c(O)c(-c2ncc3c(=O)n([C@@H]4CC[C@H](N)C4)ccc3n2)cc2cn(C)nc12` [Compound 1477]: the IC50 is 100 to 1000 nM in the test with Target C (setting [4]), below 100 nM in the test with SMN2 mRNA (setting [5]) and below 100 nM with HTT (setting [6]).
Turning to `CNC12CCC(n3ccc4nc(-c5cc6cn(C)nc6c(C)c5O)ncc4c3=O)(CC1)C2` [Compound 1479], the figures for the IC50 in the test on Target C (setting [4]), with SMN2 mRNA (setting [5]) and with HTT (setting [6]) were 1000 to 10000 nM, below 100 nM and 100 to 1000 nM, respectively.
Taken in the same sequence, the figures for `COc1cc(-c2ccc3c(=O)n([C@H]4CCN[C@@H](C)C4)ccc3n2)nn2cc(C)nc12` [Compound 1519, 2-(8-methoxy-2-methyl-imidazo[1,2-b]pyridazin-6-yl)-6-[(2S,4S)-2-methyl-4-piperidyl]-1,6-naphthyridin-5-one] were 100 to 1000 nM, below 100 nM and below 100 nM.
As to `Cc1cn2nc(-c3ccc4c(=O)n([C@@H]5CCN(C)[C@H](C)C5)ncc4n3)cc(C)c2n1` [Compound 1527], the IC50 in the test on Target C (setting [4]) was 100 to 1000 nM; in the test on SMN2 mRNA (setting [5]) it was below 100 nM; with HTT (setting [6]) it was 100 to 1000 nM.
With `Cc1cn2nc(-c3ccc4c(=O)n([C@H]5CCN(C)[C@@H](C)C5)ncc4n3)cc(C)c2n1` [Compound 1528, 2-(2,8-dimethylimidazo[1,2-b]pyridazin-6-yl)-6-(1,2-dimethyl-4-piperidyl)pyrido[2,3-d]pyridazin-5-one], the IC50 in the test on Target C (setting [4]), with SMN2 mRNA (setting [5]) and in the test with HTT (setting [6]) was 100 to 1000 nM throughout.
On to `CCN1CC[C@@H](n2ncc3nc(-c4cc(C)c5nc(C)cn5n4)ccc3c2=O)CC12CC2` [Compound 1530], for which the IC50 in the test with Target C (setting [4]), with SMN2 mRNA (setting [5]) and with HTT (setting [6]) was below 100 nM throughout.
